Reference: US11534457B2, “Use of dextran sulfate” (priority 2017, dated 2022)
Marks after values point to notes of the source that are not given here.

System: severe traumatic brain injury (sTBI)
Assay: sTBI in rats, HPLC of purine-pyrimidine / energy metabolites in brain (Example 3)
Assay type: in vivo, Male Wistar rats
Protocol: The experimental protocol used in this study was approved by the Ethical Committee of the Catholic University of Rome, according to international standards and guidelines for animal care. Male Wistar rats of 300-350 g body weight (b.w.) were fed with standard laboratory diet and water ad libitum in a controlled environment.
1) n=6 animals subjected to sTBI, with drug administration after 30 minutes and sacrifice at 2 days post-TBI (Acute phase 1)
2) n=6 animals subjected to severe-TBI, with drug administration after 30 minutes and sacrifice at 7 days post-TBI (Acute phase 2).
3) n=6 animals subjected to severe-TBI, with drug administration after 3 days and sacrifice at 7 days post-TBI (Chronic phase).
As the anesthetic mixture, animals received 35 mg/kg b.w. ketamine and 0.25 mg/kg b.w. midazolam by i.p. injection. sTBI was induced by dropping a 450 g weight from 2 m height on to the rat head that had been protected by a metal disk previously fixed on the skull, according to the “weight drop” impact acceleration model (Marmarou et al., A new model of diffuse brain injury in rats. Part I: Pathophysiology and biomechanics. J Neurosurg. 1994; 80: 291-300). […] At the end of each period of treatment, rats were anesthetized again and then immediately sacrificed.
The drug treatment was a subcutaneous injection of 0.5 ml of LMW-DS (15 mg/kg) and administered according to the aforementioned schematic protocol.
An in vivo craniectomy was performed in all animals during anesthesia, after carefully removing the rat's skull, the brain was exposed and removed with a surgical spatula and quickly dropped in liquid nitrogen. After the wet weight (w.w.) determination, tissue preparation was affected as previously disclosed (Tavazzi et al., Cerebral oxidative stress and depression of energy metabolism correlate with severity of diffuse brain injury in rats. Neurosurgery. 2005; 56: 582-589; Vagnozzi et al., Temporal window of metabolic brain vulnerability to concussions: mitochondrial-related impairment-part I. Neurosurgery. 2007; 61: 379-388; Tavazzi et al., Temporal window of metabolic brain vulnerability to concussions: oxidative and nitrosative stresses-part II. Neurosurgery. 2007; 61: 390-395; Amorini et al., Severity of experimental traumatic brain injury modulates changes in concentrations of cerebral free amino acids. J Cell Mol Med. 2017; 21: 530-542.). Briefly, whole brain homogenization was performed with 7 ml of ice-cold, nitrogen-saturated, precipitating solution composed by CH3CN+10 mM KH2PO4, pH 7.40, (3:1; v:v), and using an Ultra-Turrax set at 24,000 rpm/min (Janke & Kunkel, Staufen, Germany). After centrifugation at 20,690×g, for 10 min at 4° C., the clear supernatants were saved, pellets were supplemented with 3 ml of the precipitating solution and homogenized again as described above. A second centrifugation was performed (20,690×g, for 10 min at 4° C.), pellets were saved, supernatants combined with those previously obtained, extracted by vigorous agitation with a double volume of HPLC-grade CHCl3 and centrifuged as above. The upper aqueous phases containing water-soluble low-molecular weight compounds were collected, subjected to chloroform washings for two more times (this procedure allowed the removal of all the organic solvent and of any lipid soluble compound from the buffered tissue extracts), adjusted in volumes with 10 mM KH2PO4, pH 7.40, to have ultimately aqueous 10% tissue homogenates and saved at −80° C. until assayed. […]

[1] = Acute phase 1: 15 mg/kg s.c. 30 min post-sTBI, sacrifice 2 days
[2] = Acute phase 2: 15 mg/kg s.c. 30 min post-sTBI, sacrifice 7 days

## low molecular weight dextran sulfate [LMW-DS]
15 mg/kg s.c.
  brain MDA levels: significant reduction
  brain NAA and its substrates: significant improvements
  brain ascorbic acid and GSH levels: significant improvement
15 mg/kg s.c., acute and chronic phases of sTBI
  brain nitrate concentrations: significantly decreased
[1]
  ADO, cerebral concentration: 71.67 ± 15.87 nmol/g (w.w.)
  ADP, cerebral concentration: 279.34 ± 29.59^b nmol/g (w.w.)
  ADP-ribose, cerebral concentration: 137.87 ± 43.18^a nmol/g (w.w.)
  AMP, cerebral concentration: 53.61 ± 17.91^a,c,j nmol/g (w.w.)
  ATP, cerebral concentration: 1464.25 ± 99.09^a,h nmol/g (w.w.)
  CDP choline, cerebral concentration: 10.93 ± 3.22^b,h nmol/g (w.w.)
  CDP, cerebral concentration: 25.53 ± 6.83^a,c nmol/g (w.w.)
  CMP, cerebral concentration: 30.12 ± 9.97^a,h nmol/g (w.w.)
  CTP, cerebral concentration: 18.98 ± 6.58^a,g nmol/g (w.w.)
  CoA-SH, cerebral concentration: 21.61 ± 3.42^a,h nmol/g (w.w.)
  GDP glucose, cerebral concentration: 38.71 ± 6.86 nmol/g (w.w.)
  GDP, cerebral concentration: 158.72 ± 24.57^a nmol/g (w.w.)
  GMP, cerebral concentration: 177.00 ± 32.39^a,g nmol/g (w.w.)
  GSH, cerebral concentration: 2649.50 ± 397.31^a,d nmol/g (w.w.)
  GSSG, cerebral concentration: 185.21 ± 48.10 nmol/g (w.w.)
  GTP, cerebral concentration: 255.29 ± 45.21^a,g nmol/g (w.w.)
  IMP, cerebral concentration: 67.71 ± 10.63^g,i nmol/g (w.w.)
  MDA, cerebral concentration: 12.47 ± 2.09^a,c,g nmol/g (w.w.)
  NADH, cerebral concentration: 15.49 ± 2.05^c,j nmol/g (w.w.)
  NADPH, cerebral concentration: 6.22 ± 1.73 nmol/g (w.w.)
  NADP^+, cerebral concentration: 17.95 ± 3.28^a nmol/g (w.w.)
  NAD^+, cerebral concentration: 404.63 ± 51.10^a,c,i nmol/g (w.w.)
  NM, cerebral concentration: 6147.91 ± 989.12^a nmol/g (w.w.)
  NO2, cerebral concentration: 216.03 ± 41.74^a nmol/g (w.w.)
  NO3, cerebral concentration: 210.64 ± 91.95^d nmol/g (w.w.)
  UDP, cerebral concentration: 61.83 ± 10.23^a,g nmol/g (w.w.)
  UDP-Gal, cerebral concentration: 119.45 ± 12.50 nmol/g (w.w.)
  UDP-GalNac, cerebral concentration: 19.17 ± 4.01^a nmol/g (w.w.)
  UDP-Glc, cerebral concentration: 32.14 ± 4.59^g nmol/g (w.w.)
  UDP-GlcNac, cerebral concentration: 95.85 ± 19.73^h,i nmol/g (w.w.)
  UMP, cerebral concentration: 107.80 ± 21.62 nmol/g (w.w.)
  UTP, cerebral concentration: 123.46 ± 15.42^d nmol/g (w.w.)
  acetyl-CoA, cerebral concentration: 21.56 ± 6.22^a,g,i nmol/g (w.w.)
  adenine, cerebral concentration: 44.82 ± 6.31^a,d,g nmol/g (w.w.)
  ascorbic acid, cerebral concentration: 3733.10 ± 277.88^a,d nmol/g (w.w.)
  creatinine, cerebral concentration: 24.55 ± 3.20^b,g,i nmol/g (w.w.)
  cytidine, cerebral concentration: 15.40 ± 3.04 nmol/g (w.w.)
  cytosine, cerebral concentration: 17.69 ± 2.50^b,d nmol/g (w.w.)
  guanine, cerebral concentration: 4.80 ± 1.24^b nmol/g (w.w.)
  guanosine, cerebral concentration: 20.71 ± 5.66 nmol/g (w.w.)
  hypoxanthine, cerebral concentration: 14.47 ± 2.87^a nmol/g (w.w.)
  inosine, cerebral concentration: 92.55 ± 31.20^c nmol/g (w.w.)
  malonyl-CoA, cerebral concentration: 12.33 ± 1.82^b nmol/g (w.w.)
  orotic acid, cerebral concentration: 8.80 ± 2.45^b,h,j nmol/g (w.w.)
  thymidine, cerebral concentration: 0.69 ± 0.11 nmol/g (w.w.)
  uracil, cerebral concentration: 14.56 ± 5.44 nmol/g (w.w.)
  uric acid, cerebral concentration: 23.62 ± 3.77^a,d,h nmol/g (w.w.)
  uridine, cerebral concentration: 76.35 ± 12.85^a,c nmol/g (w.w.)
  xanthine, cerebral concentration: 9.46 ± 2.34^d nmol/g (w.w.)
  β-pseudouridine, cerebral concentration: 6.65 ± 1.30^g,i nmol/g (w.w.)
[2]
  ADO, cerebral concentration: 82.11 ± 16.51^a nmol/g (w.w.)
  ADP, cerebral concentration: 264.07 ± 28.29^b,e,j nmol/g (w.w.)
  ADP-ribose, cerebral concentration: 141.96 ± 23.56^a,e,j nmol/g (w.w.)
  AMP, cerebral concentration: 57.70 ± 23.01^a,e,j nmol/g (w.w.)
  ATP, cerebral concentration: 1632.23 ± 90.07^a,e,j nmol/g (w.w.)
  CDP choline, cerebral concentration: 6.91 ± 1.86 nmol/g (w.w.)
  CDP, cerebral concentration: 24.29 ± 6.76^a nmol/g (w.w.)
  CMP, cerebral concentration: 15.68 ± 2.12^f,j nmol/g (w.w.)
  CTP, cerebral concentration: 32.63 ± 3.99^e,i nmol/g (w.w.)
  CoA-SH, cerebral concentration: 30.57 ± 6.02^f nmol/g (w.w.)
  GDP glucose, cerebral concentration: 49.25 ± 10.33^a nmol/g (w.w.)
  GDP, cerebral concentration: 126.70 ± 31.35^a,j nmol/g (w.w.)
  GMP, cerebral concentration: 91.47 ± 12.35^e,i nmol/g (w.w.)
  GSH, cerebral concentration: 2821.50 ± 242.82^a,e nmol/g (w.w.)
  GSSG, cerebral concentration: 219.54 ± 53.36 nmol/g (w.w.)
  GTP, cerebral concentration: 336.65 ± 35.18^a,e,j nmol/g (w.w.)
  IMP, cerebral concentration: 102.63 ± 22.09^a nmol/g (w.w.)
  MDA, cerebral concentration: 4.82 ± 1.73^a,e,i nmol/g (w.w.)
  NADH, cerebral concentration: 13.12 ± 4.19^e nmol/g (w.w.)
  NADPH, cerebral concentration: 7.05 ± 2.21 nmol/g (w.w.)
  NADP^+, cerebral concentration: 21.27 ± 4.19^b,e,j nmol/g (w.w.)
  NAD^+, cerebral concentration: 401.18 ± 34.53^a,e,i nmol/g (w.w.)
  NM, cerebral concentration: 7262.84 ± 749.73^a,e nmol/g (w.w.)
